Laboratory results from patent US11746102B2, “Polymorphs of selinexor” (Karyopharm Therapeutics Inc., priority 2014, dated 2023).

Key:
Format in all cases: physicochemical
[1] = Particle size analysis (Malvern MS2000, volume-based); settings: for d10: 10% of total particle volume no larger than this size, 0.1% lecithin in Isopar G dispersant; for d50: 50% of total particle volume no larger than this size; for d50 / d90 / D[4,3] Volume weighted mean: lecithin in Isopar G dispersant; for d90: 90% of total particle volume no larger than this size; for D[4,3] Volume weighted mean: in µm; for Characteristic of the particle size distribution: overlay of particle size distributions
Source text: Particle size data was acquired using a Malvern Instruments MS2000 equipped with a Hydro2000 μP dispersion unit. Data was collected and analyzed using Mastersizer 2000 v 5.60 software, using volume-based measurements. NIST-traceable glass beads were used as the reference standard.
Details of the method conditions used to analyze particle size are listed below: • Sample refractive index: 1.596 • Sample absorption: 0.001 • Dispersant: 0.100 (w/v) Lecithin in Isopar G • Dispersant refractive index: 1.42 • Pump speed: 2100 rpm • Recirculation time: 2 minutes • Sample measurement time: 30 sec. • Background measurement time: 30 sec. • Model: general purpose • Sensitivity: normal • Particle shape: irregular.
One particle size measurement of each lot of selinexor described in Examples 1-6 was collected using the particle size method conditions described above. Table 4 provides sample information and particle size analysis data for the indicated lot of selinexor under the particle size method analysis conditions described above. FIGS. 5A-5P are particle size distribution graphs and show the particle size distribution of the sample corresponding to the indicated lot of selinexor under the particle size method analysis conditions described above.

[2] = Stability of Form A on exposure to humidity/temperature
Protocol: A comprehensive polymorphism assessment of selinexor was performed in a range of different solvents, solvent mixtures and under a number of experimental conditions based on the solubility of selinexor. Three anhydrous polymorphs of selinexor were observed by XRPD investigation, designated Form A, Form B and Form C.

[3] = Competitive slurry experiment (Form A, Form C, seed of Form B); settings: about 1:1 Form A and Form C with Form B seed; matured at 5, 25, 50° C. in ethyl acetate, 30% IPA:70% water, 30% ethanol:70% water; 72 hours and 1 week; in acetonitrile the solvate formed
Protocol: In a competitive slurry experiment, approximately 1:1 mixtures of Form A and Form C were prepared. The mixtures were then stirred with a seed of Form B (about 5% by weight of the mixture of Form A and Form C). The produced systems were matured at 5° C., 25° C. and 50° C. under stirring in acetonitrile, ethyl acetate, 30% IPA:70% water and 30% ethanol:70% water. The systems were analyzed by XRPD at two different time points: 72 hours and 1 week.
Form D was observed by maturation in acetonitrile. This experiment confirmed Form A as the stable form, compared to Form B and Form C, under the conditions investigated. The presence of acetonitrile led to solvate formation at all of the temperatures investigated.

[4] = Polymorphism studies (cooling, slow evaporation, maturation; XRPD); settings: 8 days maturation RT/50° C., solids analysed by XRPD
Protocol: Samples found as clear solutions at −20° C. were placed for slow evaporation at RT using a 25-gauge syringe needle(s) in the septum of the vial. • The solid suspensions observed in 100 volumes of the relative solvent systems at the end of the solubility assessment were placed for 8 days maturation cycling between RT and 50° C. (cycling 4 hours at RT; 4 hours at 50° C.). After the maturation, the solids were recovered and the supernatants were placed for slow evaporation. All the solids obtained by these processes were analyzed by XRPD.

[5] = Solubility assessment (visual) of selinexor in solvents and solvent mixtures; settings: for Solubility: starting Form A

## O=C(/C=C\n1cnc(-c2cc(C(F)(F)F)cc(C(F)(F)F)c2)n1)NNc1cnccn1 [Lot No. PC-14-005]
[1]
  Minor tertiary mode: approximately 400 μm
[1]; listed as PC-14-005
  d10: 6.363 μm
  d50: 18.345 μm
  d90: 86.906 μm
  D[4,3] Volume weighted mean: 36.720

## O=C(/C=C\n1cnc(-c2cc(C(F)(F)F)cc(C(F)(F)F)c2)n1)NNc1cnccn1 [Lot No. PC-14-008]
[1]; listed as PC-14-008
  d10: 7.658 μm
  d50: 18.290 μm
  d90: 42.616 μm
  D[4,3] Volume weighted mean: 22.451
  Characteristic of the particle size distribution: more a unimodal characteristic

## O=C(/C=C\n1cnc(-c2cc(C(F)(F)F)cc(C(F)(F)F)c2)n1)NNc1cnccn1 [Lot No. PC-14-009]
[1]; listed as PC-14-009
  d10: 9.665 μm
  d50: 24.406 μm
  d90: 68.445 μm
  D[4,3] Volume weighted mean: 32.557
  Characteristic of the particle size distribution: more a unimodal characteristic

## O=C(/C=C\n1cnc(-c2cc(C(F)(F)F)cc(C(F)(F)F)c2)n1)NNc1cnccn1 [Lot No. 1341-AK-109-2]
[1]; listed as 1341-AK-109-2
  d10: 2.815 μm
  d50: 10.423 μm
  d90: 89.782 μm
  D[4,3] Volume weighted mean: 32.779
  Characteristic of the particle size distribution: distinctly bimodal

## O=C(/C=C\n1cnc(-c2cc(C(F)(F)F)cc(C(F)(F)F)c2)n1)NNc1cnccn1 [Form A]
[2]; exposed for 4 weeks to 25° C./97% relative humidity (RH)
  Physico-chemical stability: stable
[2]; exposed for 4 weeks to 40° C./75% RH
  Physico-chemical stability: stable
[3]
  Relative stability of forms in competitive slurry: stable anhydrous form
[4]
  Stability of the form under solvent-based experimentation: stable in most of the conditions investigated

## O=C(/C=C\n1cnc(-c2cc(C(F)(F)F)cc(C(F)(F)F)c2)n1)NNc1cnccn1 [Lot No. 1339-BS-142-2]
[1]; listed as 1339-BS-142-2
  d10: 6.088 μm
  d50: 14.468 μm
  d90: 33.936 μm
  D[4,3] Volume weighted mean: 20.889
  Characteristic of the particle size distribution: more a unimodal characteristic

## O=C(/C=C\n1cnc(-c2cc(C(F)(F)F)cc(C(F)(F)F)c2)n1)NNc1cnccn1 [Lot No. 1405463]
[1]; listed as 1405463
  d10: 12.062 μm
  d50: 27.653 μm
  d90: 64.876 μm
  D[4,3] Volume weighted mean: 33.740

## O=C(/C=C\n1cnc(-c2cc(C(F)(F)F)cc(C(F)(F)F)c2)n1)NNc1cnccn1 [Selinexor, (Z)-3-(3-(3,5-bis(trifluoromethyl)phenyl)-1H-1,2,4-triazol-1-yl)-N′-(pyrazin-2-yl)acrylohydrazide]
[5]; 20% MeCN:80% Water, volumes of solvent
  Solubility: Not dissolved in 100 v
[5]; 40% MeCN:60% Water, volumes of solvent
  Solubility: Not dissolved in 100 v
[5]; 60% MeCN:40% Water, volumes of solvent
  Solubility: Dissolved in 50 v
[5]; 80% MeCN:20% Water, volumes of solvent
  Solubility: Dissolved in 30 v
[5]; 90% MeCN:10% Water, volumes of solvent
  Solubility: Dissolved in 30 v
[5]; Acetonitrile, volumes of solvent (1 volume in μL = sample mg), assessed at 50° C. and RT
  Solubility: Dissolved in 70 v
[5]; IPA:water mixtures having up to 60% water
  Solubility (visual): soluble
[5]; acetonitrile:water mixtures having up to 40% water
  Solubility (visual): soluble
[5]; heptane, 1,2-dichloroethane, toluene, cumene, diisopropylether, water and isooctane, 5 to 100 volumes
  Solubility (visual): not soluble
[5]; thirty solvents and solvent mixtures, 50° C./RT
  Share of the solvent systems investigated in which soluble: about 60 % of the solvent systems investigated

## O=C(/C=C\n1cnc(-c2cc(C(F)(F)F)cc(C(F)(F)F)c2)n1)NNc1cnccn1 [Lot No. 1305365]
[1]; listed as 1305365
  d10: 4.905 μm
  d50: 14.268 μm
  d90: 75.098 μm
  D[4,3] Volume weighted mean: 34.740

## O=C(/C=C\n1cnc(-c2cc(C(F)(F)F)cc(C(F)(F)F)c2)n1)NNc1cnccn1 [Lot No. 1339-BS-142-1]
[1]; listed as 1339-BS-142-1
  d10: 4.978 μm
  d50: 11.969 μm
  d90: 28.331 μm
  D[4,3] Volume weighted mean: 16.614
  Characteristic of the particle size distribution: more a unimodal characteristic
